# Reference: patent US8314150B2, “Kinase protein binding inhibitors” (priority 2008, dated 2012)
# System: FAK wildtype fibroblasts (MEFs)
# Assay: MTT cell viability assay, FAK wildtype vs FAK null fibroblasts
# Type: cell-based
# Details: 72 hours, p<0.05
# Experimental: The 3-(4,5-dimethylthiazol-2-yl)-5-(3-carboxymethoxyphenyl)-2-(4-sulfophenyl)-2H-tetrazolium compound from Promega Viability kit (Madison, Ill.) was added, and the cells were incubated at 37° C. for 1-2 hours. The optical density on 96-plate was analyzed with a microplate reader at 490 nm to determine cell viability. In addition, cells were stained with trypan blue after 24 hours of treatment with Y15 and the percent of cells that stained positive were determined with a hemacytometer. Cell adhesion assay—The poly-L-Lysine or Collagen (5 μg/ml) coated 96-well plates were blocked with the blocking buffer (medium with 0.5% BSA) for 1 hour at 37 C. […] Then 2% SDS was added to the dried plated and OD at 590 nm was measured for detecting cell adhesion. […] Protein concentrations were determined using a Bio-Rad Kit. The boiled samples were loaded on Ready SDS-10% PAGE gels (Bio Rad, Inc) and used for Western blot analysis with the protein-specific antibody. […] Detachment Assay—Cells were plated with and without inhibitors for 24 hours, and detached and attached cells were counted in a hemocytometer. We calculated the percent of detachment by dividing the number of detached cells by the total number of cells. The percent of detached cells was calculated in three independent experiments. […] For each experiment 300 cells per treatment were counted. […]
smiles,measurement,value
"Cl.Cl.Cl.Cl.Nc1cc(N)c(N)cc1N [Y15, 1,2,4,5-benzenetetraamine tetrahydrochloride]",dose from which viability of FAK wildtype fibroblasts decreased compared to FAK null fibroblasts,0.1 µM
